Measurements: US10479793B2, “Imidazopyridazine compounds useful as modulators of IL-12, IL-23 and/or IFN alpha responses” (BRISTOL-MYERS SQUIBB COMPANY, priority 2015, dated 2019)
Like-named read-outs stand apart in the source and are kept apart here.

Tests used:
[1] = molecular target: T1, recombinantly expressed His-tagged protein corresponding to amino acids 575-869 of human Tyk2 (Homo sapiens, UniProt P29597); experiment: Probe displacement assay (scintillation proximity, tritiated probe); assay type: binding; conditions: His-tagged Tyk2 (575-869) 2.5 nM, 40 nM radiolabeled probe, 30 minutes at room temperature
T1 construct: made in house
T1 sequence (P29597 with tags, fused parts or gaps): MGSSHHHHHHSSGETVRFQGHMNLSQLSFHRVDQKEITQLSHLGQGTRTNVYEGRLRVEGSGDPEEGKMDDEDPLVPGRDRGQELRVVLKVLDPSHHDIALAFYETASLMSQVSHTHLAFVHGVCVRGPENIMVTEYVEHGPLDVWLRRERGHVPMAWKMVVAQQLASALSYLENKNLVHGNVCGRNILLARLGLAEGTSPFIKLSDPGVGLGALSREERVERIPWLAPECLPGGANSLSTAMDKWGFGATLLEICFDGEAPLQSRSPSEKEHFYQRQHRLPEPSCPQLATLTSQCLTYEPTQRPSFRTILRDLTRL
Protocol: The preparation of radiolabeled probe, (R)—N-(1-(3-(8-methyl-5-(methylamino)-8H-imidazo[4,5-d]thiazolo[5,4-b]pyridin-2-yl)phenyl)ethyl)-2-([^3H]methylsulfonyl)benzamide, was performed as described below: […]

[2] = system: IFNα stimulated Kit225 T cells with a stably-integrated STAT-dependent luciferase reporter; experiment: Kit225 T cell assay, IFNα stimulated STAT-dependent luciferase reporter; assay type: cell-based, human
Protocol: (§1) Kit225 T cells with a stably-integrated STAT-dependent luciferase reporter were plated in RPMI (GIBCO) containing 10% heat-inactivated FBS (GIBCO) and 100 U/mL PenStrep (GIBCO). The cells were then stimulated with either 20 ng/mL human recombinant IL-23 or 200 U/mL human recombinant IFNα (PBL InterferonSource) for 5-6 hours. Luciferase expression was measured using the STEADY-GLO Luciferase Assay System (PROMEGA) according to the manufacturer's instructions.

[3] = system: IL-23 stimulated Kit225 T cells with a stably-integrated STAT-dependent luciferase reporter; experiment: Kit225 T cell assay, IL-23 stimulated STAT-dependent luciferase reporter; assay type: cell-based, human
Protocol: as §1

[4] = Homo sapiens, KIT225, 200 U/mL human recombinant IFNα, 5-6 hours, luciferase, read-out: IFNa Kit225 Reporter, (IC50)
[5] = Homo sapiens, KIT225, 20 ng/mL human recombinant IL-23, 5-6 hours, luciferase, read-out: IL-23 Kit225 Reporter, (IC50)
[6] = Homo sapiens, KIT225, read-out: IFNa Kit225 Reporter, (IC50, uM)
[7] = Homo sapiens, KIT225, read-out: IL-23 Kit225 Reporter, (IC50, uM)
[8] = KIT225, 200 U/mL human recombinant IFNα, 5-6 hours, luciferase, read-out: IFNa Kit225 Reporter, (IC50)
[9] = KIT225, 20 ng/mL human recombinant IL-23, 5-6 hours, luciferase, read-out: IL-23 Kit225 Reporter, (IC50)

EC50 [1] [nM] | IC50 [2, 4] [µM] | IC50 [3, 5] [µM] | IC50 [2, 8] [µM] | IC50 [3, 9] [µM] | Compound | IC50 [2, 6] [µM] | IC50 [3, 7] [µM]
3.24 | 0.03 | 0.03 | – | – | CNc1cc(Nc2cc(C)cc(F)c2)nn2c(C(=O)NC3CC3)cnc12 [Example 2] | – | –
4.21 | – | – | 0.09 | 0.12 | CNc1cc(Nc2cc(F)ccc2F)nn2c(C(N)=O)cnc12 [Example 6] | – | –
250 | 3.3 | – | – | – | CNc1cc(Nc2cc(C)cc(C)c2)nn2c(C(=O)N3CC(O)C3)cnc12 [Example 7] | – | –
5.91 | 0.17 | 0.25 | – | – | CNc1cc(Nc2cc(C)cc(F)c2)nn2c(C(=O)NCC(C)(C)O)cnc12 [Example 9] | – | –
20 | – | – | 0.4 | 0.56 | CNc1cc(Nc2cc(F)cc(F)c2)nn2c(C(=O)NCC(C)(C)CO)cnc12 [Example 15] | – | –
20 | 0.58 | 0.79 | – | – | Cc1cc(F)cc(Nc2cc(NC3CC3)c3ncc(C(=O)NC4CC4)n3n2)c1 [Example 38] | – | –
70 | – | – | 1.28 | 2.32 | Cc1cc(C)cc(Nc2cc(NCCCN(C)C)c3ncc(C(N)=O)n3n2)c1 [Example 50] | – | –
70 | – | – | 2.9 | 3.74 | Cc1cc(C)cc(Nc2cc(NCC3CC3)c3ncc(C(N)=O)n3n2)c1 [Example 51] | – | –
70 | – | – | 12.8 | 7.04 | Cc1cc(C)cc(Nc2cc(NCCO)c3ncc(C(N)=O)n3n2)c1 [Example 52] | – | –
200 | – | – | 12.4 | 9.72 | Cc1cc(C)cc(Nc2cc(NCC(C)C)c3ncc(C(N)=O)n3n2)c1 [Example 53] | – | –
30 | – | – | 1.17 | 1.25 | CCCNc1cc(Nc2cc(C)cc(C)c2)nn2c(C(N)=O)cnc12 [Example 54] | – | –
80 | – | – | 3.62 | 2.38 | CCCCCNc1cc(Nc2cc(C)cc(C)c2)nn2c(C(N)=O)cnc12 [Example 55] | – | –
70 | – | – | 1.79 | 2.12 | COCCNc1cc(Nc2cc(C)cc(C)c2)nn2c(C(N)=O)cnc12 [Example 56] | – | –
160 | – | – | 12.5 | 9.48 | Cc1cc(F)cc(Nc2cc(NCC(F)(F)F)c3ncc(C(N)=O)n3n2)c1 [Example 59] | – | –
50 | – | – | 1.94 | 2.63 | Cc1cc(C)cc(Nc2cc(Nc3cncs3)c3ncc(C(N)=O)n3n2)c1 [Example 61] | – | –
300 | – | – | 11 | 13.2 | Cc1cc(C)cc(Nc2cc(Nc3cc(C)n(C)n3)c3ncc(C(N)=O)n3n2)c1 [Example 62] | – | –
280 | – | – | 12.5 | 12.5 | Cc1cc(C)cc(Nc2cc(Nc3cnccn3)c3ncc(C(N)=O)n3n2)c1 [Example 63] | – | –
70 | – | – | 12.5 | 12.5 | Cc1cc(C)cc(Nc2cc(Nc3cccnc3)c3ncc(C(N)=O)n3n2)c1 [Example 64] | – | –
10 | – | – | 0.73 | 0.7 | Cc1cc(C)cc(Nc2cc(N)c3ncc(C(N)=O)n3n2)c1 [Example 67] | – | –

More lines, now with the values behind:

Compound | EC50 [1] [nM] | IC50 [2, 4] [µM] | IC50 [3, 5] [µM] | IC50 [2, 8] [µM] | IC50 [3, 9] [µM] | IC50 [2, 6] [µM] | IC50 [3, 7] [µM]
CNc1cc(Nc2cc(C)cc(F)c2)nn2c(C(=O)N3CCC3)cnc12 [Example 3] | 60 | – | – | – | – | 1.92 | 2.82
CNc1cc(Nc2cc(F)cc(C(F)(F)F)c2)nn2c(C(=O)NC3CCC3)cnc12 [Example 4] | 6.85 | 0.32 | 0.81 | – | – | – | –
CNc1cc(Nc2cccc(OC(F)(F)F)c2)nn2c(C(=O)NC3CCC3)cnc12 [Example 5] | 7.29 | 0.5 | 0.5 | – | – | – | –
CNc1cc(Nc2cc(F)ccc2F)nn2c(C(=O)NC3CC3)cnc12 [Example 8] | 3.61 | 0.03 | 0.03 | – | – | – | –
CNc1cc(N2CCc3ccccc32)nn2c(C(=O)NC3CCC3)cnc12 [Example 10] | 7.57 | – | – | 0.08 | 0.16 | – | –
CNc1cc(N2CCc3ccccc32)nn2c(C(=O)NCC(C)(C)O)cnc12 [Example 11] | 90 | – | – | 2.27 | 2.9 | – | –
CNc1cc(Nc2cc(F)cc(F)c2F)nn2c(C(=O)NC3CC3)cnc12 [Example 13] | 2.97 | 0.03 | 0.05 | – | – | – | –
CNc1cc(Nc2cc(F)cc(F)c2F)nn2c(C(=O)NCC(C)(C)O)cnc12 [Example 14] | 7.03 | – | – | 0.26 | 0.37 | – | –
CNc1cc(Nc2cc(F)cc(F)c2OC)nn2c(C(=O)NCC(C)(C)C)cnc12 [Example 16] | 7.04 | – | – | 0.09 | 0.24 | – | –
CNc1cc(Nc2cc(F)cc(F)c2F)nn2c(C(=O)NCC(C)(C)CO)cnc12 [Example 18] | 3.72 | – | – | 0.01 | 0.04 | – | –
CNc1cc(Nc2c(F)c(F)cc(F)c2F)nn2c(C(N)=O)cnc12 [Example 19] | 5.86 | – | – | 0.17 | 0.27 | – | –
CNc1cc(Nc2c(F)c(F)cc(F)c2F)nn2c(C(=O)NC3CC3)cnc12 [Example 20] | 3.97 | 0.05 | 0.06 | – | – | – | –
CNc1cc(Nc2c(F)c(F)cc(F)c2F)nn2c(C(=O)NCC(C)(C)O)cnc12 [Example 21] | 30 | – | – | 0.21 | 0.39 | – | –
CNc1cc(Nc2ccccn2)nn2c(C(=O)N[C@@H]3C[C@@H]3F)cnc12 [Example 22] | 5.46 | 0.18 | 0.25 | – | – | – | –
CNc1cc(Nc2cccc(-c3ccc(OC(F)(F)F)cc3)n2)nn2c(C(=O)NC3(C#N)CC3)cnc12 [Example 23] | 40 | – | – | 0.66 | 0.42 | – | –
CNc1cc(Nc2cccnc2OC)nn2c(C(=O)NC3(C#N)CC3)cnc12 [Example 24] | 7.25 | – | – | 0.05 | 0.04 | – | –
CNc1cc(Nc2cccnc2OC)nn2c(C(=O)NCCO)cnc12 [Example 25] | 6.05 | – | – | 0.09 | 0.05 | – | –
CNc1cc(Nc2cccnc2OC)nn2c(C(=O)NCCF)cnc12 [Example 26] | 2.93 | – | – | 0.06 | 0.09 | – | –

Compound | EC50 [1] [nM] | IC50 [2, 4] [µM] | IC50 [3, 5] [µM] | IC50 [2, 8] [µM] | IC50 [3, 9] [µM] | IC50 [2, 6] [µM] | IC50 [3, 7] [µM]
CNc1cc(Nc2cccnc2OC)nn2c(C(=O)NC3CCC3)cnc12 [Example 27] | 2.7 | 0.01 | 0.04 | – | – | – | –
CNc1cc(Nc2cccnc2-n2cccn2)nn2c(C(=O)NC3CCCC3O)cnc12 (stereo not shown) [Example 28] | 60 | – | – | 0.45 | 0.33 | – | –
CNc1cc(Nc2cccnc2-n2cccn2)nn2c(C(=O)NC(C)CO)cnc12 (stereo not shown) [Example 29] | 40 | – | – | 0.41 | 0.27 | – | –
CNc1cc(Nc2cccnc2-n2cccn2)nn2c(C(=O)NCCO)cnc12 [Example 30] | 20 | – | – | 0.21 | 0.35 | – | –
CNc1cc(Nc2cccnc2-n2cccn2)nn2c(C(=O)NCC(C)(C)O)cnc12 [Example 31] | 130 | – | – | 2.58 | 0.58 | – | –
CNc1cc(Nc2cccnc2-n2cccn2)nn2c(C(=O)N[C@@H](C)CO)cnc12 [Example 32] | 50 | – | – | 0.31 | 0.54 | – | –
N#Cc1cc(Nc2cc(NC3CC3)c3ncc(C(=O)NC4CC4)n3n2)cc(C(F)(F)F)c1 [Example 33] | 190 | – | – | 12.5 | 12.5 | – | –
N#Cc1cc(Nc2cc(NC3CC3)c3ncc(C(=O)NCCO)n3n2)cc(C(F)(F)F)c1 [Example 35] | 160 | – | – | 8.48 | 8.07 | – | –
CCNC(=O)c1cnc2c(NC3CC3)cc(Nc3cc(C#N)cc(C(F)(F)F)c3)nn12 [Example 36] | 350 | – | – | 12.5 | 3.33 | – | –
O=C(NC1CCC1)c1cnc2c(NC3CC3)cc(Nc3cc(F)cc(F)c3F)nn12 [Example 44] | 60 | – | – | 1.39 | 1.46 | – | –
NC(=O)c1cnc2c(NC3CC3)cc(Nc3cccc(F)c3)nn12 [Example 47] | 40 | – | – | 1.13 | 1.12 | – | –
Cc1cc(C)cc(Nc2cc(NCCN(C)C)c3ncc(C(N)=O)n3n2)c1 [Example 58] | 80 | – | – | – | – | 2.96 | 1.55
Cc1cc(F)cc(Nc2ccc3ncc(C(=O)NC4CC4)n3n2)c1 [Example 68] | 2.26 | 0.86 | 0.95 | – | – | – | –
CNc1cc(Nc2cccnc2-n2ccc(C(F)(F)F)n2)nn2c(C(=O)NC3CC3)cnc12 [Example 99] | 570 | – | – | – | – | – | –
CNc1cc(Nc2cccnc2C(=O)NCCOC)nn2c(C(=O)NC3CC3)cnc12 [Example 108] | 7.59 | – | – | – | – | – | –
CNc1cc(Nc2cccc(-c3ccc(C(F)(F)F)cc3F)c2)nn2c(C(=O)NC[C@@](C)(O)CO)cnc12 [Example 113] | 7.62 | – | – | – | 0.75 | – | –
CNc1cc(Nc2cc(C)cc(C)c2)nn2c(C(=O)NC3CC3)cnc12 [Example 114] | – | – | – | – | – | 0.1 | –
